The subject of one experiment is HEK293. Description: Displacement of [3H]menthol from human TRPM8 S4b_M5 mutant expressed in HEK293 cell membranes at 100 uM by scintillation counting. A general note: Loss of bound radioactivity is the signal in a displacement assay; it reports binding, not function.
Experiment [1] can be described thus: Activity at human TRPM8 S4b_M mutant expressed in HEK293 cells assessed as compound concentration causing leftward shift of voltage for half maximal activation. In kind it is cell-based.
A short description of experiment [2]: Binding affinity to human TRPM8 S4b_M mutant expressed in HEK293 cell membranes.
The subject of experiment [3] is Transient receptor potential cation channel subfamily M member 8 (Homo sapiens), Q7Z2W7 [L1009R]. To be noted: HEK293, 100 uM.
For experiment [4], the system named is Transient receptor potential cation channel subfamily M member 8 (Homo sapiens), Q7Z2W7 [Y745H]. To be noted: HEK293, 100 uM.

We go through 1 compound from ChEMBL document CHEMBL1240324, “TRPM8 voltage sensor mutants reveal a mechanism for integrating thermal and chemical stimuli” (Nat Chem Biol, 2007).

Broadly, the pEC50 is the negative decadic logarithm of the EC50, by convention in mol/L. The term pKd denotes the negative decadic logarithm of the Kd, by convention in mol/L. A lower pKd goes with a large Kd.

The structures appear in SMILES notation. pEC50, pKd: −log10 of the molar value. Active and inactive are the calls of the source. The rule behind the calls is not given here.

Transient receptor potential cation channel subfamily M member 8 (Homo sapiens), Q7Z2W7 [Y745H], sequence (Q7Z2W7 whole entry Y745H): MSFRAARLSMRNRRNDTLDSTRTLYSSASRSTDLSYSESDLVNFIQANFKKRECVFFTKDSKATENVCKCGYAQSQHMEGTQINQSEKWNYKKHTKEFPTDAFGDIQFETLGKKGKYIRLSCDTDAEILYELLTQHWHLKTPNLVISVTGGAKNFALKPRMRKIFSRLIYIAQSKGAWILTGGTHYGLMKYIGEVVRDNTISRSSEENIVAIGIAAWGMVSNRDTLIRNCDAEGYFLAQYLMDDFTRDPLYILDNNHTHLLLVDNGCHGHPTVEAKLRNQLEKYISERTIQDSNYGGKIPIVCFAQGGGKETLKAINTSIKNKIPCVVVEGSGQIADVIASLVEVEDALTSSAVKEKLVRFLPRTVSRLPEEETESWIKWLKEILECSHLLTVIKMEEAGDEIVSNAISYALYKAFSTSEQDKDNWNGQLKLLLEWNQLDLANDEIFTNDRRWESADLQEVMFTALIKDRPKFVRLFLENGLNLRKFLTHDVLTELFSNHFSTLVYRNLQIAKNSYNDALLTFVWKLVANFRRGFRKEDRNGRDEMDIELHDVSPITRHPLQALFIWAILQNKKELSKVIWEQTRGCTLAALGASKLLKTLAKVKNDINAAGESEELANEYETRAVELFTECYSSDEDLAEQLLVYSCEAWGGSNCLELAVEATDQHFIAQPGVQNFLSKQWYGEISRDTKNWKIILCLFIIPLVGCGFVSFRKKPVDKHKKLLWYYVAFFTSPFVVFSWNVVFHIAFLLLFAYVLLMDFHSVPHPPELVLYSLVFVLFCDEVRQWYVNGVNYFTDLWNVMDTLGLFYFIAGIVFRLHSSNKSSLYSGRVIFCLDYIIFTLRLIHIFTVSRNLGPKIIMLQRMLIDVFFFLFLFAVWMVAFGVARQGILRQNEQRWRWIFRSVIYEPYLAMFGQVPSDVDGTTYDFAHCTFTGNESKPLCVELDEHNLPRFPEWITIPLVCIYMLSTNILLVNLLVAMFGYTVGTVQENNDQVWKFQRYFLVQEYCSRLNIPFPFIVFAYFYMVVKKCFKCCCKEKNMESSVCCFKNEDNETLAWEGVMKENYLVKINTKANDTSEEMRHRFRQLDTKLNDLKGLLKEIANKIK
Transient receptor potential cation channel subfamily M member 8 (Homo sapiens), Q7Z2W7 [L1009R], sequence (Q7Z2W7 whole entry L1009R): as the sequence (Q7Z2W7 whole entry Y745H) above, with H745Y, L1009R counted along it

Turning to `CC1CCC(C(C)C)C(O)C1` (stereo not given) [MENTHOL], the inhibition result (in the experiment on HEK293; in experiment [4]) was “inactive” each time. Moreover, the negative-log EC50 (pEC50) in experiment [1] was 3.32. Also, the pKd in experiment [2] was 3.66. In experiment [3], the inhibition result was “Active”.
